# Measurements as given in patent publication US20080071005A1, “Environment-Friendly Pollution-Proof Agent” (priority 2004, published 2008).
# Read-outs that look alike come from different tables or passages of the source.
# How the values were obtained:
# mice = assay: safety test, 10 mg/kg to mice, 7 days observation; format: in vivo; details: 10 mg/kg in DMSO/water, 10 mice per group, observed for 7 days
# [1] = test system: spores of Enteromorpha prolifera and Ulva pertusa; assay: prevention of the attachment of fouling algae (summary)
# Description: The effect of the extracts on the prevention of the attachment of fouling algae was tested using the spores of Enteromorpha prolifera and Ulva pertusa, which are typical fouling algae.
# Aspergillus niger = assay: minimum inhibitory concentration, two-fold serial dilution in nutrient broth; format: cell-based; details: 30° C., 48 hours
# Description: (§1) A liquid medium obtained by diluting PAGS by two-fold serial dilution was placed on a 96-multiwell plate and inoculated with 10^4 cfu/ml of microorganisms. […] The liquid medium used in the test was a nutrient broth (Difco).
# Staphylococcus aureus = assay: as above; format: cell-based; details: 30° C., 48 hours
# Description: as §1
# [2] = safety test, oral and transdermal toxicity in rabbits; details: rabbit, in vivo
# Enteromorpha spores = assay: inhibitory activity test against the mobility of Enteromorpha spores; format: cell-based; details: Brassica extracts and fractions, comparison within the set
# Description: In order to investigate inhibitory substances against the mobility of Enteromorpha spores from extracts of Citrus sp., organic solvent fractions were made.
# In order to investigate inhibitory substances against the mobility of Enteromorpha spores from extracts of brassica, organic solvent fractions were made.
compound,measurement,setting,value
C=CC(=C)CCC=C(C)C [beta-myrcene],death of the mice,mice,no death
same,antifouling activity,[1],excellent antifouling activity
"CCCCCCCCO (single isomer, unassigned) [1-octanol]",death of the mice,mice,no death
same,antifouling activity,[1],excellent antifouling activity
CCCCCCC(=O)OCC [ethyl heptanoate],death of the mice,mice,no death
same,antifouling activity,[1],excellent antifouling activity
C=CCc1ccc(O)c(OC)c1 [eugenol],death of the mice,mice,no death
same,antifouling activity,[1],excellent antifouling activity
CC(C)=CCC/C(C)=C/C=O,antifouling activity,[1],excellent antifouling activity
methyl caporate,death of the mice,mice,no death
same,MIC Aspergillus niger 1:0,Aspergillus niger; ratio 1:0,10
same,MIC Aspergillus niger 3:1,Aspergillus niger; ratio 3:1,6
same,MIC Staphylococcus aureus 1:0,Staphylococcus aureus; ratio 1:0,4
same,MIC Staphylococcus aureus 3:1,Staphylococcus aureus; ratio 3:1,5
same,antifouling activity,[1],excellent antifouling activity
CC/C=C\CCOC(C)=O [cis-3-hexenyl acetate],LD50,"[2]; oral, read-out: LD50 (oral)",> 5000 mg/kg
same,LD50,"[2]; topical or ocular, transdermal, read-out: LD50 (transdermal)",> 5000 mg/kg
same,solubility in organic solvent,organic solvent,insoluble in organic solvent
same,solubility in water,water,insoluble in water
same,"inhibitory activity against the mobility of Enteromorpha spores, in words",Enteromorpha spores,most excellent inhibitory effect
same,antifouling activity,[1],excellent antifouling activity
"C=CCN=C=S (single isomer, unassigned) [allyl isothiocyanate]",death of the mice,mice,no death
same,antifouling activity,[1],excellent antifouling activity
CCCCCCCCCCCCCCCCCCCC(=O)O [arachadic acid],death of the mice,mice,no death
same,antifouling activity,[1],excellent antifouling activity
